For series [1], the system named is tumor cells. To be noted: cited from earlier work.
The subject of series [2] is HeLa cells / Thp-1/PMA macrophages. Nature of the series: Phagocytosis of treated HeLa cells by Thp-1/PMA macrophages. In kind it is cell-based, human. To be noted: HeLa treated 24 h at 1× or 3× IC50,72h, co-incubated 2.5 h with Thp-1/PMA macrophages. As for the experimental part: Figure 8 Hallmarks of ICD. (A) Extracellular ATP levels in HeLa cell supernatants. […] (B) Extracellular level of HMGB1. […] (C) Calreticulin exposure to the cell surface. […] The surface calreticulin exposure was determined in 4′,6-diamidino-2-phenylindole dihydrochloride (DAPI)-negative cell population. Relative fluorescence intensity was calculated as the median fluorescence of the population of treated cells/median fluorescence of untreated control cells. The data in panels A, B, and C are shown as a mean of 4–5 measurements ± SD. Statistical significance from untreated control was determined with the Student t-test (*p ≤ 0.05, **p ≤ 0.01, and ^#p ≤ 0.001). (D) Quantitative evaluation of phagocytosis of HeLa cells treated with the investigated compounds by human Thp-1/PMA macrophages (analyzed by flow cytometry). […] Error bars are the SEMs calculated from three independent experiments. The stars denote a significant difference from untreated control (*p ≤ 0.05, **p ≤ 0.01) as calculated by the […] Student t-test. […]
Human monocytic leukemia cells Thp-1 (obtained from American Type Culture Collection, ATCC) were differentiated into macrophages with phorbol 12-myristate 13-acetate (PMA, 100 nM) for 24 h. […] Phagocytosis was evaluated using flow cytometry (BD FACSVerse), and data were analyzed with FCS Express 7 (DeNovo software; Glendale, CA). […]

Series [3] is described as follows: MTT assay in non-cancerous fibroblasts, 72 h. In kind it is cell-based. Particulars: MRC-5 cells (non-cancerous fibroblasts), non-cancerous human fibroblasts, 72 h incubation, mean ± SD. Here is the method:
(§1) Cells were treated with the tested compounds in a final volume of 200 μL/well. […] Calbiochem, Darmstadt, Germany) was added, and the cells were incubated for an additional 2–4 h. The medium was removed, and the insoluble formazan product was dissolved in 100 μL/well DMSO. […] The read values were converted to the percentage of control. […] All experiments were made in triplicate.

In series [4] the test system is HeLa cells. The series can be described thus: ATP secretion. Particulars: 1× and 3× IC50, 24 h. Format: cell-based, human.
Description: HeLa cells were seeded in 24-well plates at a density of 10^4 cells/well, grown overnight, and then treated with the tested complexes for 24 h. Aliquots of culture medium samples were withdrawn, centrifugated (500g, 3 min), and processed with ATP Bioluminescence Assay Kit CLS II, Roche. Briefly, 50 μL of cell-free medium samples were added to a 96-well flat white plate, and an equal volume of luciferase reagent was added. The luminescence was measured immediately on a plate reader (SPARK, Tecan). The blank (no ATP) was subtracted from the raw data. ATP concentrations were obtained from the standard curve and normalized to cell counts and control. The data are shown as MEAN of 4–5 independent measurements.
In series [5] the test system is HeLa cells. The series can be described thus: Mitochondrial membrane potential (TMRE, flow cytometry). In kind it is cell-based, human. To be noted: 10× IC50, 1 h, vs untreated control. Here is the method:
Figure 4 Changes in the mitochondrial membrane potential Δψm in HeLa cells. The cells were treated with Pt compounds at the concentrations corresponding to 10× IC50 for 1 h and subsequently stained with TMRE. The fluorescence was measured by flow cytometry. Data represents mean ± SD from three independent experiments, *p < 0.01.
HeLa cells were seeded (6-well plates, 3 × 10^5 cells/well), grown overnight, and then treated with the tested compounds for 1 h. The medium was removed, and a fresh medium containing TMRE (Thermo Fisher Scientific) at a final concentration of […] in 500 μL was added. The cells were incubated for 30 min at 37 °C and then harvested using trypsin. TMRE fluorescence was measured with a fluorescence-activated cell sorting (FACS) Verse flow cytometer (Becton Dickinson), and the data were analyzed using the ModFit LT 4.1 (Verity Software House) software. The experiment was performed in triplicate.

For series [6], the system named is MCF-7. Nature of the series: MTT antiproliferative assay, 72 h. In kind it is cell-based, human. Particulars: read-out: IC50 MCF-7. Here is the method: (§2) Cells were treated with the tested compounds in a final volume of 200 μL/well. […] Calbiochem, Darmstadt, Germany) was added, and the cells were incubated for an additional 2–4 h. The medium was removed, and the insoluble formazan product was dissolved in 100 μL/well DMSO. The absorbance was read at 570 nm (vs 620 nm) using an Absorbance Reader (SUNRISE TECAN SCHOELLER). The read values were converted to the percentage of control. […] All experiments were made in triplicate.

The test system of series [7] is A2780. The series can be described thus: MTT antiproliferative assay, 72 h. In kind it is cell-based, human. Particulars: read-out: IC50 A2780. Here is the method:
as §2

Series [8] relates to HCT-116. Nature of the series: MTT antiproliferative assay, 72 h. Format: cell-based, human. To be noted: read-out: IC50 HCT-116. Here is the method:
as §2

Series [9] concerns HeLa. The series can be described thus: MTT antiproliferative assay, 72 h. Format: cell-based, human. As for the experimental part: as §2
The subject of series [10] is MDA-MB-231. Nature of the series: MTT antiproliferative assay, 72 h. Format: cell-based, human. Particulars: read-out: IC50 MDA-MB-231. As for the experimental part:
as §2

The subject of series [11] is A2780cisR. The series can be described thus: MTT antiproliferative assay, 72 h. Format: cell-based, human. Particulars: read-out: IC50 A2780cisR. Here is the method: as §2
In series [12] the test system is HeLa cells. Nature of the series: HMGB1 release (ELISA). Format: cell-based, human. Particulars: 1×, 2×, 3× IC50, 20 h.
Description: (B) Extracellular level of HMGB1. […] The data in panels A, B, and C are shown as a mean of 4–5 measurements ± SD. Statistical significance from untreated control was determined with the Student t-test (*p ≤ 0.05, **p ≤ 0.01, and ^#p ≤ 0.001).
HeLa cells were seeded in 24-well plates at a density of 10^4 cells/well and grown overnight. The medium was removed, and a fresh medium (DMEM, 1% BSA, no FBS) containing indicated concentrations of tested complexes was added (300 μL). Following a 20 h treatment, medium samples were withdrawn, and the HMGB1 content was determined using an HMGB1 ELISA Kit (IBL international) following the instructions for use. Cell counts in corresponding wells were determined using Automated Cell Counter (Bio-Rad). HMGB1 concentrations were normalized to cell counts and to the value of untreated control. The experiment was performed twice with duplicate readings.
For series [13], the system named is COX in HeLa cells. The series can be described thus: COX activity assay (kit) in treated cells. Format: cell-based, human. Particulars: 24 h, 1× IC50,72h, vs untreated control. As for the experimental part: The results are expressed relative to the COX activity of untreated control.
HeLa cells were seeded in 6-well plates at a density of 10^5 cells/well and incubated overnight. The cells were treated with the tested compounds at concentrations corresponding to 1× IC50. Following a 24 h treatment, the cells were lyzed with radioimmunoprecipitation assay (RIPA) buffer supplemented with proteinase inhibitors on ice for 10 min. The extracts were cleared with centrifugation (12,000g/5 min), and protein content was determined using Bradford assay. COX activity was determined with a COX Activity Assay Kit (Abcam). 6 μg of protein was used in the reaction. The experiment was set up according to the manufacturer’s instructions. The fluorescence (Ex/Em 535/587 nm) was read in a kinetic mode, and the COX inhibition was expressed as a percentage of the activity of the untreated control.

The subject of series [14] is HeLa cells. Nature of the series: Calreticulin exposure (flow cytometry). Particulars: 3× IC50, 16–18 h, DAPI-negative cells. Format: cell-based, human.
Description: Following the treatment, the cells were harvested (trypsin), washed with FACS buffer (PBS, BSA 1%, and FBS 2%), and incubated with Alexa Fluor 488 Anti-Calreticulin antibody for 40 min at 4 °C. The buffer was removed (CFG, 300 g, 3 min) and replaced with FACS buffer containing DAPI (1 μg mL^–1, 20 min), and the cells were analyzed with flow cytometry (BD FACS Verse) and FCS Express 6 (DeNovo Software, Glendale, CA). Calreticulin fluorescence histograms were analyzed in the DAPI-negative (intact membrane) cell population.
The test system of series [15] is MRC-5. Nature of the series: MTT assay in non-cancerous fibroblasts, 72 h. Format: cell-based. Particulars: non-cancerous human fibroblasts, 72 h incubation, mean ± SD. Here is the method: as §1
For series [16], the system named is DNA isolated from HeLa cells. Nature of the series: Pt associated with DNA isolated from treated HeLa cells. In kind it is cell-based, human. To be noted: 1 µM compound, 6 h, mean ± SD. The text has this: page 16: Table S1: […] concentration of tested compounds for 6 ha. […] Figure S19: A. Representative histograms obtained by flow cytometric analysis of calreticulin exposure in HeLa cells treated with indicated compounds. B. An example of gating DAPI negative population. Only DAPI-negative cells were taken for the evaluation.

Series [17] is described as follows: Partition coefficient, shake-flask method. To be noted: octanol/water. Format: physicochemical. As for the experimental part: The “shake flask” method was used to measure the partition coefficients (P) of platinum compounds. The compounds were dissolved in octanol-saturated water (OSW) containing 200 mM NaCl. […] After careful separation of the layers with a fine-tip pipet, the Pt content in individual phases was determined by flameless atomic absorption spectrometry. The partition coefficients were calculated as the concentration ratio of the compound in the octanol layer to that in the aqueous layer, log P = log([Pt]WSO/[Pt]OSW).

Series [18] has as its system oral cancer xenograft. Set-up: method as in PMID 33305724. To be noted: BALB/c nude mice; cited from earlier work.
The subject of series [19] is HeLa cells. Nature of the series: Cellular accumulation of platinum (ICP-MS). Format: cell-based, human. Here is the method:
Briefly, 3 × 10^6 cells were seeded in 100 mm culture dishes and grown overnight. The cells were exposed to the tested complexes at indicated concentrations for indicated periods. […] The pellets were digested using the microwave acid (HCl) digestion system (CEM Mars). The platinum quantity taken up by the cells was determined by inductively coupled plasma mass spectrometry (ICP–MS). All experiments were performed in triplicate.

Series [20] relates to peritoneal carcinomatosis. Set-up: method as in PMID 20535526. Particulars: BD-IX rats; cited from earlier work.
Where [21] appears, read: MTT, 72 h incubation, mean ± SD.

Like-named read-outs stand apart in the source and are kept apart here.

For `O=C1[O][Pt]2([NH][C@@H]3CCCC[C@H]3[NH]2)[O]C1=O` [oxaliplatin], the tumor cell phagocytosis result in series [1] is “does not promote tumor cell phagocytosis”.
On to `COc1cccc2c1C(=O)c1c(O)c3c(c(O)c1C2=O)C[C@@](O)(C(=O)CO)C[C@@H]3O[C@H]1C[C@H](N)[C@H](O)[C@H](C)O1` [doxorubicin, reference compound], for which the “increase of tumor-cell phagocytosis” value in series [2] was “slightly less pronounced levels of phagocytosis”.
Turning to `O=C([O-])Cc1ccccc1Nc1c(Cl)cccc1Cl.[Na+]` [DCF, sodium {2-[(2,6-dichlorophenyl)amino]phenyl}-acetate, reference compound], the IC50 at 72 h in series [3] worked out at 445 ± 36 µM. The ATP secretion entry in [4] was “effective as well”. Besides, in [5], the “mitochondrial membrane potential Δψm (TMRE fluorescence)” value is on record as “approximately the same effect”. Besides, the IC50 in series [6] (Homo sapiens, MCF7, 72 h) amounted to 259 ± 17 µM; in series [7] (Homo sapiens, A2780, 72 h), 238 ± 19 µM; in [8] (Homo sapiens, HCT-116, 72 h), 211 ± 10 µM; in series [9] (Homo sapiens, HeLa, 72 h, read-out: IC50 HeLa) it was 250 ± 22 µM; in series [9] (Homo sapiens, HeLa, read-out: HeLa (biological data CSV)), 240 ± 15 µM; in series [10] (Homo sapiens, MDA-MB-231, 72 h) it was 187 ± 15 µM. The IC50 in series [11] (Homo sapiens, A2780cisR, 72 h) stood at 138 ± 8 µM. Moreover, the HMGB1 secretion entry in series [12] is “effective as well”. For the same compound, in series [13], the “inhibition of COX activity” value is “Inhibition of COX activity was also observed”. In addition, the externalization of calreticulin entry in series [14] is “effective as well”.
For the compound `Cc1c(C)c2cccnc2c2ncccc12.N[C@H]1CCCC[C@@H]1N.[Pt]` [complex 1, [Pt(1S,2S-diaminocyclohexane)(5,6-dimethyl-1,10-phenanthroline)]^2+], the IC50 in series [15] is 0.17 ± 0.04 µM; in series [6] (setting [21]) it was 0.7 ± 0.1 µM; in series [7] (setting [21]), 0.19 ± 0.04 µM; in [8] (setting [21]), 0.08 ± 0.01 µM; in series [9] (MTT, 72 h incubation, mean ± SD, read-out: IC50 HeLa), 0.37 ± 0.01 µM; in series [10] (setting [21]), 0.24 ± 0.03 µM. Also, the IC50 in series [11] (setting [21]) stood at 0.06 ± 0.01 µM. In addition, the ATP secretion entry in series [4] is given as “effective as well”. Moreover, in [16], the “amount of Pt associated with DNA” value is recorded as 2.0 ± 0.2 pg Pt/µg DNA. In series [17], the “log P” value is given as “–1.7 ± 0.2”. The “in vivo anticancer effect, oral cancer xenograft” value in [18] is “potent anticancer effect”. In addition, the HMGB1 secretion entry in series [12] was “effective as well”. The “cellular uptake 0.1 μM/24 h” value in series [19] (0.1 μM complex, 24 h) was determined as 4.4 ± 0.5 ng Pt/10^6 cells. In addition, the “cellular uptake 1 μM/6 h” value in series [19] (1 μM complex, 6 h) was 13 ± 3 ng Pt/10^6 cells. Further, the “cellular uptake 10 μM/6 h” value in [19] (10 μM complex, 6 h) is 72 ± 2 ng Pt/10^6 cells. Moreover, the “in vivo antitumor activity, peritoneal carcinomatosis” value in series [20] is “no antitumor activity”. For the same compound, the externalization of calreticulin entry in series [14] is “effective as well”. The “increase of tumor-cell phagocytosis” value in series [2] is recorded as “roughly as effective as its Pt(IV) analogues 2–4”.

(Values after paper PMC10291556 (Journal of Medicinal Chemistry, 2023).)
